Test results taken from patent publication US20070275052A1, “Pharmaceutical compositions containing sterol inhibitors” (Glenmark Pharmaceuticals Limited, priority 2006, published 2007).

Assay: Initial experiments: drug release of ezetimibe having particle size about 25 microns
Format: physicochemical
Settings: ezetimibe particle size about 25 microns
Source text: The pharmaceutical compositions of present invention can be prepared with techniques well known in the art, preferably, direct compression, dry granulation and wet granulation.

- release of the drug: 40-50%
SMILES: O=C1[C@H](CC[C@H](O)c2ccc(F)cc2)[C@@H](c2ccc(O)cc2)N1c1ccc(F)cc1 [ezetimibe, Ezetimibe]
